What was measured:
GSPT1 = test: Western blot, degradation of substrate protein in hPBMCs; type: cell-based, Human; conditions: 24 hours treatment, compounds at 50 nM and 500 nM (concentration behind the class not stated)
[1] = molecular target: T1, human Cereblon WT GST-tagged protein (Homo sapiens, UniProt Q96SW2); test: CRBN-binding affinity, HTRF (CEREBLON BINDING kit); conditions: for inhibition at 0.5 µM: read-out: Inhibition Rate at 0.5 µM (%); for inhibition at 2 µM: read-out: Inhibition Rate at 2 µM (%)
T1 construct: purchased CISBIO 64BDCRBNPEH

IKZF3 = molecular target: T2, IKZF3 (Homo sapiens, UniProt Q96SW2+Q9UKT9); test: Western blot, degradation of substrate protein in hPBMCs; type: cell-based; conditions: 24 hours treatment, compounds at 50 nM and 500 nM (concentration behind the class not stated)
T2 construct: effects of the compounds of the present disclosure on the expression of target proteins in cells; endogenous in cells; host or cells: human PBMCs (Milecell Biotechnologies)

WEE1 = molecular target: T3, WEE1 (Homo sapiens, UniProt P30291+Q96SW2); test: as above; type: cell-based; conditions: 24 hours treatment, compounds at 50 nM and 500 nM (concentration behind the class not stated)
T3 construct: effects of the compounds of the present disclosure on the expression of target proteins in cells; endogenous in cells; host or cells: human PBMCs (Milecell Biotechnologies)

IKZF1 = molecular target: T4, IKZF1 (Homo sapiens, UniProt Q13422+Q96SW2); test: as above; type: cell-based; conditions: 24 hours treatment, compounds at 50 nM and 500 nM (concentration behind the class not stated)
T4 construct: effects of the compounds of the present disclosure on the expression of target proteins in cells; endogenous in cells; host or cells: human PBMCs (Milecell Biotechnologies)

IKZF2 = molecular target: T5, IKZF2 (Homo sapiens, UniProt Q96SW2+Q9UKS7); test: as above; type: cell-based; conditions: 24 hours treatment, compounds at 50 nM and 500 nM (concentration behind the class not stated)
T5 construct: effects of the compounds of the present disclosure on the expression of target proteins in cells; endogenous in cells; host or cells: human PBMCs (Milecell Biotechnologies)

CK1α = molecular target: T6, CK1α (Homo sapiens, UniProt P48729+Q96SW2); test: as above; type: cell-based; conditions: 24 hours treatment, compounds at 50 nM and 500 nM (concentration behind the class not stated)
T6 construct: effects of the compounds of the present disclosure on the expression of target proteins in cells; endogenous in cells; host or cells: human PBMCs (Milecell Biotechnologies)
T6 sequence (P48729 whole entry): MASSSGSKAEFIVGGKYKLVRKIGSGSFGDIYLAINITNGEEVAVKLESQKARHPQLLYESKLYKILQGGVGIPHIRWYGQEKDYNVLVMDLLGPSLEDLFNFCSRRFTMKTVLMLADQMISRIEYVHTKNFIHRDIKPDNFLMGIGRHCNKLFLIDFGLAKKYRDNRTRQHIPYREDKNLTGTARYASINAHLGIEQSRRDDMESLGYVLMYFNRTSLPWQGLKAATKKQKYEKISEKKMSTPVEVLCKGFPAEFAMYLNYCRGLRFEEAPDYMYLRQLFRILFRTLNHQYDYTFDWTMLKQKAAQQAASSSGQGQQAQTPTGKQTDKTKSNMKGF
T6 sequence (Q96SW2 whole entry): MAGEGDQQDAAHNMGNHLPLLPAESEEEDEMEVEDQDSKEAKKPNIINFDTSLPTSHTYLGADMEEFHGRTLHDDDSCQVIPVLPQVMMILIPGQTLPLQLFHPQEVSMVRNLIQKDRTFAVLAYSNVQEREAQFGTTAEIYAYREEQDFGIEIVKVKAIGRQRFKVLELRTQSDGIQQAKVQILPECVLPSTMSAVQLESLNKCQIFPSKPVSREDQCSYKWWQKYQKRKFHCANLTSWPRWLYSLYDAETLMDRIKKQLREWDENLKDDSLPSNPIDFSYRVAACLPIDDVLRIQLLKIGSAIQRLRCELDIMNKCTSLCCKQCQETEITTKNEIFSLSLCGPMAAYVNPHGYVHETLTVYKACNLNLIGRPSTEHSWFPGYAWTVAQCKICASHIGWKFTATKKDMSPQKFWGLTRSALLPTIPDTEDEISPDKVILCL
T6 sequence (Q16531 whole entry partner): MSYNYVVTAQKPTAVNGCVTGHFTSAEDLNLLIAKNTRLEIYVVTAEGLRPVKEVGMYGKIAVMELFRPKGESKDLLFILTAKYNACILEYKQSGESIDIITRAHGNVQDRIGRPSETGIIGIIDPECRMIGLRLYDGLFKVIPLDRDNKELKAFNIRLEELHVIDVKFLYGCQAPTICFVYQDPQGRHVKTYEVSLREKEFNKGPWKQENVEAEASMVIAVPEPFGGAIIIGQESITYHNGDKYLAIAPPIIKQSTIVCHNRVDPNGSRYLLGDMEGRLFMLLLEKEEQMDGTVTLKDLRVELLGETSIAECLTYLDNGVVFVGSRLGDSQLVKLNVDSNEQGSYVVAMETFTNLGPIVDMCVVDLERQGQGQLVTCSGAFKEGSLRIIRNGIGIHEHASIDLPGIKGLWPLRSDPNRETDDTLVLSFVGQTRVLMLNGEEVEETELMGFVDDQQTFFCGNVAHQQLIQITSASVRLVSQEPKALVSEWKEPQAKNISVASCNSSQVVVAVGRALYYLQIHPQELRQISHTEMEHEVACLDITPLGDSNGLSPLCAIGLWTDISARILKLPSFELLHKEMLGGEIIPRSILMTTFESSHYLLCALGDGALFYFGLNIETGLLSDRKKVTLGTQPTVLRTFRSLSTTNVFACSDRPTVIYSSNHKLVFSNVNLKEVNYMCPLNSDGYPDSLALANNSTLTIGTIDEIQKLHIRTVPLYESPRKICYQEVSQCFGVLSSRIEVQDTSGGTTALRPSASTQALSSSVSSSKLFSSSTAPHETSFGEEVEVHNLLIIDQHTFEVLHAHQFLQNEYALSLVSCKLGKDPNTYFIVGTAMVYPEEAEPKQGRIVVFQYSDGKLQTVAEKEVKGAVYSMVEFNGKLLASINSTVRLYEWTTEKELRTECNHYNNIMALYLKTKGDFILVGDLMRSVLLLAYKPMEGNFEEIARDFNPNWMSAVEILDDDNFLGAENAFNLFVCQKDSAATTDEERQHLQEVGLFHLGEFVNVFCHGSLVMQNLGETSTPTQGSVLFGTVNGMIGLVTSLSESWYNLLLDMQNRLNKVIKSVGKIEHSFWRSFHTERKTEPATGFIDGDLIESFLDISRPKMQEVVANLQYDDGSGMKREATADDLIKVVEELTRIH

T2 sequence (Q9UKT9 whole entry): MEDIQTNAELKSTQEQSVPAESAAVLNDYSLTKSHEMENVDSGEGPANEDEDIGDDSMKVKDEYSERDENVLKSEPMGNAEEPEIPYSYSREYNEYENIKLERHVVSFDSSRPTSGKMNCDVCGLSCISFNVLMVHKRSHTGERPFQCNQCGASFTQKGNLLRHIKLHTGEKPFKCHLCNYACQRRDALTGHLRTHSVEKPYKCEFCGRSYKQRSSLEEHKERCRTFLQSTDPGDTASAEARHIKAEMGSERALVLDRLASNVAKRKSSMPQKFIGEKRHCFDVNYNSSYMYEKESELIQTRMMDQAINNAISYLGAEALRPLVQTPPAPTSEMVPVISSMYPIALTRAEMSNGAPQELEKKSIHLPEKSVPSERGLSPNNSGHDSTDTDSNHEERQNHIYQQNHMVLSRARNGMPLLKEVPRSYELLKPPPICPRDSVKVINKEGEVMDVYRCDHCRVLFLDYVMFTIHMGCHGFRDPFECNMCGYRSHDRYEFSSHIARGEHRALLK
T2 sequence (Q96SW2 whole entry): as the sequence (Q96SW2 whole entry) above
T2 sequence (Q16531 whole entry partner): as the sequence (Q16531 whole entry partner) above
T3 sequence (P30291 whole entry): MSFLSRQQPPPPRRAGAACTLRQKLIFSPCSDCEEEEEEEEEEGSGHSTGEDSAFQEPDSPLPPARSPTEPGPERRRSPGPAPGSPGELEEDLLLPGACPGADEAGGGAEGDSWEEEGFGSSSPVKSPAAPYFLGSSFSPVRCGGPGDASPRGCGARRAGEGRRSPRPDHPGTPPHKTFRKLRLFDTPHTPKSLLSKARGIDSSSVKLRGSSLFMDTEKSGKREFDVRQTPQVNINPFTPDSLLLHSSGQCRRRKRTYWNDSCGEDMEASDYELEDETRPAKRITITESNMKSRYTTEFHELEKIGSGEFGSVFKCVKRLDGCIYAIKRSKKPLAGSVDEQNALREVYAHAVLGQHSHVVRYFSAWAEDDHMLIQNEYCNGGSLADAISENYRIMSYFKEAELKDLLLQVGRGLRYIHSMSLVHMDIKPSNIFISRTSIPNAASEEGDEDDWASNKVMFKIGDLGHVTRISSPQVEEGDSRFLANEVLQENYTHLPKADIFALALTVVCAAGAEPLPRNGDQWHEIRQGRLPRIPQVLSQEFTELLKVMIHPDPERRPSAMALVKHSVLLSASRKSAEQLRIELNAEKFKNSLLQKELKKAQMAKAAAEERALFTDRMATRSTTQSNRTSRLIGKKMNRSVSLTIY
T3 sequence (Q96SW2 whole entry): as the sequence (Q96SW2 whole entry) above
T3 sequence (Q16531 whole entry partner): as the sequence (Q16531 whole entry partner) above
T5 sequence (Q9UKS7 whole entry): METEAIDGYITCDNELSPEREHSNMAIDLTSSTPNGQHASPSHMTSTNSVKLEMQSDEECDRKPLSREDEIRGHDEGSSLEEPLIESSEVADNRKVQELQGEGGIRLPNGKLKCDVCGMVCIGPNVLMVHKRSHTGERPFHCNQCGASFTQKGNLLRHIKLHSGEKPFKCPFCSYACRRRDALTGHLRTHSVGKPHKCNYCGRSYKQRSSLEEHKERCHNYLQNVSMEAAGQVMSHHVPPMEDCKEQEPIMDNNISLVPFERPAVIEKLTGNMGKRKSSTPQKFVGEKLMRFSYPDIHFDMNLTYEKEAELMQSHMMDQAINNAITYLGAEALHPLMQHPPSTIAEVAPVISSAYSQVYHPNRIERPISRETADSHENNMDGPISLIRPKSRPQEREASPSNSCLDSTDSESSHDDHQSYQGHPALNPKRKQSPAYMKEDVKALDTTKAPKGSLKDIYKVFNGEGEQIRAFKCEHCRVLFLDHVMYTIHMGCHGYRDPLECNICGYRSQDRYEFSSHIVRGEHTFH
T5 sequence (Q96SW2 whole entry): as the sequence (Q96SW2 whole entry) above
T5 sequence (Q16531 whole entry partner): as the sequence (Q16531 whole entry partner) above
T1 sequence (Q96SW2 whole entry): as the sequence (Q96SW2 whole entry) above
T4 sequence (Q13422 whole entry): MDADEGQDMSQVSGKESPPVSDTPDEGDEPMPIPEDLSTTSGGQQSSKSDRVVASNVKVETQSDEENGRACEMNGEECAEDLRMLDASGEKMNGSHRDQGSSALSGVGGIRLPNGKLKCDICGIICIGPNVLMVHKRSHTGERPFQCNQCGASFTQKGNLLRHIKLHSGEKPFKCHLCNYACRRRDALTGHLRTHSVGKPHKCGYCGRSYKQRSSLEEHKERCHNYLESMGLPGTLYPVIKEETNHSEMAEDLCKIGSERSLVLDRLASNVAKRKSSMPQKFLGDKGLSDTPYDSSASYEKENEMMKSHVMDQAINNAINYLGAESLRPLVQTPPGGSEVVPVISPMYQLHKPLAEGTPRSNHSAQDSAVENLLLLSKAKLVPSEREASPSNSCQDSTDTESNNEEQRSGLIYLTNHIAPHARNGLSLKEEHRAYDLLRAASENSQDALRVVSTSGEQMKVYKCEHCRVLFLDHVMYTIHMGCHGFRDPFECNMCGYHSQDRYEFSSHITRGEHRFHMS
T4 sequence (Q96SW2 whole entry): as the sequence (Q96SW2 whole entry) above
T4 sequence (Q16531 whole entry partner): as the sequence (Q16531 whole entry partner) above

| Compound | GSPT1 substrate protein remaining % (GSPT1) | inhibition at 0.5 µM [1] [%] | inhibition at 2 µM [1] [%] | IKZF3 substrate protein remaining % (IKZF3) | Wee1 substrate protein remaining % (WEE1) | IKZF 1 substrate protein remaining % (IKZF1) | IKZF2 substrate protein remaining % (IKZF2) | CK1α substrate protein remaining % (CK1α) |
| --- | --- | --- | --- | --- | --- | --- | --- | --- |
| O=C1CCC(N2Cc3cc(CN4CCC(n5c(=O)[nH]c6cc(F)ccc65)CC4)ccc3C2=S)C(=O)N1 (centres unmarked) [GT-09263, 3-(5-((4-(5-fluoro-2-oxo-2,3-dihydro-1H-benzo[d]imidazol-1-yl)piperidin-1-yl)methyl)-1-thioxoisoindolin-2-yl)piperidine-2,6-dione] | A (0% ≤ substrate protein remaining % ≤ 80%) | 60 to 80 | 80 to 100 | B (80%< substrate protein remaining %≤ 100%) | B (80%< substrate protein remaining %≤ 100%) | B (80%< substrate protein remaining %≤ 100%) | B (80%< substrate protein remaining %≤ 100%) | B (80%< substrate protein remaining %≤ 100%) |
| O=C1CCC(N2Cc3cc(CN4CCC(c5noc6ccccc56)CC4)ccc3C2=S)C(=O)N1 (centres unmarked) [GT-09266, 3-(5-((4-(benzo[d]isoxazol-3-yl)piperidin-1-yl)methyl)-1-thioxoisoindolin-2-yl)piperidine-2,6-dione] | A (0% ≤ substrate protein remaining % ≤ 80%) | 60 to 80 | 80 to 100 | B (80%< substrate protein remaining %≤ 100%) | B (80%< substrate protein remaining %≤ 100%) | B (80%< substrate protein remaining %≤ 100%) | B (80%< substrate protein remaining %≤ 100%) | B (80%< substrate protein remaining %≤ 100%) |
| O=C1CCC(N2Cc3cc(CN4CCC(c5cccc6c(F)cccc56)CC4)ccc3C2=S)C(=O)N1 (centres unmarked) [GT-09275, 3-(5-((4-(5-fluoronaphthalen-1-yl)piperidin-1-yl)methyl)-1-thioxoisoindolin-2-yl)piperidine-2,6-dione] | A (0% ≤ substrate protein remaining % ≤ 80%) | 30 to 40 | 60 to 80 | B (80%< substrate protein remaining %≤ 100%) | B (80%< substrate protein remaining %≤ 100%) | B (80%< substrate protein remaining %≤ 100%) | B (80%< substrate protein remaining %≤ 100%) | B (80%< substrate protein remaining %≤ 100%) |
| O=C1CCC(N2Cc3cc(CN4CCC(c5ccnc6cc(F)ccc56)CC4)ccc3C2=S)C(=O)N1 (centres unmarked) [GT-09278, 3-(5-((4-(7-fluoroquinolin-4-yl)piperidin-1-yl)methyl)-1-thioxoisoindolin-2-yl)piperidine-2,6-dione] | B (80%< substrate protein remaining %≤ 100%) | 30 to 40 | 60 to 80 | A (0% ≤ substrate protein remaining % ≤ 80%) | A (0% ≤ substrate protein remaining % ≤ 80%) | A (0% ≤ substrate protein remaining % ≤ 80%) | B (80%< substrate protein remaining %≤ 100%) | B (80%< substrate protein remaining %≤ 100%) |

— patent publication EP4745135A1 (Gluetacs Therapeutics (Shanghai) Co., Ltd., priority 2023, dated 2025)
